≈ marks a conversion by molar mass, not a printed value.
Assay: Aqueous solubility of photo-initiator
Assay type: physicochemical
Experimental: Pre-weighed silicone disks (approximately 0.7 cm in diameter, 0.2 cm in thickness) or cylindrical sections (approximately 0.5 cm in diameter, 1 cm in length) were incubated in a methanol solution of photo-initiator (BPB; or p-benzoyl benzoic acid, BBA) for 1 hour followed by air drying at about 40° C. for 2 hours. Samples were then suspended in vials containing 3 mL of aqueous monomer solution. When required, monomer solutions were saturated with BPB. The aqueous solubility of BPB was 4 μg/mL. All solutions were filtered through 0.22 μm pore filters prior to being flushed with nitrogen for 15 min. Vials were sealed with rubber septa and placed 2.5 cm beneath a pair of UVA bulbs (15 W ea.). Radiation intensity at the sample site was 3.8 mW/cm2 as determined by UV actinometry (16). After completion of the graft polymerization reaction, samples were briefly washed under running water with occasional scrubbing to remove any signs of adsorbed homopolymer. The remaining non-grafted material was removed by overnight incubation in 50% ethanol followed by a 4 hour incubation in water. Samples were dried in a 60° C. oven for 16 hours before their weights were determined using a microbalance. Quadruplicate samples of each treatment were analysed in all experiments.

CC(C)(C)OOC(=O)c1ccc(C(=O)c2ccccc2)cc1 [BPB, p-benzoyl tert-butylperbenzoate]
aqueous solubility: 4 µg/mL (≈ 13.4 µM)

Reference: patent publication US8840927B2, “Method of making anti-microbial polymeric surfaces” (Covalon Technologies Inc., priority 2001, dated 2014)
